How the values were obtained:
Format in all cases: in vivo
[1] = test system: giant foxtail (Setaria faberi); test: Test G Post-Emergence Protocol; details: Setaria faberi, post-emergence, 312 h; for pest or weed control at 15.625 g/ha: 15.625 g ai/ha, evaluated after 13 days (100=total damage to plant; 0=no damage to plant), read-out: Foxtail, Giant damage rating; for pest or weed control at 62.5 g/ha: 62.5 g ai/ha, read-out: Foxtail, Giant damage rating (100=total damage to plant; 0=no damage to plant); for pest or weed control at 62.5 g/ha / pest or weed control at 250 g/ha: evaluated after 13 days; for pest or weed control at 250 g/ha: 250 g ai/ha, read-out: damage to plant, Foxtail, Giant (100=total damage to plant; 0=no damage to plant)
Summary of the method: (§1)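 Post-emergence herbicidal damage, scored visually 0–100 at 13 days. Application at 15.625, 62.5 or 250 g/ha onto 8-day-old plants grown under glasshouse control.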

[2] = test system: velvetleaf (Abutilon theophrasti); test: Test G Post-Emergence Protocol; details: Abutilon theophrasti, post-emergence, 312 h; for pest or weed control at 15.625 g/ha: 15.625 g ai/ha, evaluated after 13 days (100=total damage to plant; 0=no damage to plant), read-out: Velvetleaf damage rating; for pest or weed control at 62.5 g/ha: 62.5 g ai/ha, read-out: Velvetleaf damage rating (100=total damage to plant; 0=no damage to plant); for pest or weed control at 62.5 g/ha / pest or weed control at 250 g/ha: evaluated after 13 days; for pest or weed control at 250 g/ha: 250 g ai/ha, read-out: damage to plant, Velvetleaf (100=total damage to plant; 0=no damage to plant)
Summary of the method: as §1

[3] = test system: redroot pigweed (Amaranthus retroflexus); test: Test G Post-Emergence Protocol; details: Amaranthus retroflexus, post-emergence, 312 h; for pest or weed control at 15.625 g/ha: 15.625 g ai/ha, evaluated after 13 days (100=total damage to plant; 0=no damage to plant), read-out: Pigweed, Redroot damage rating; for pest or weed control at 62.5 g/ha: 62.5 g ai/ha, read-out: Pigweed, Redroot damage rating (100=total damage to plant; 0=no damage to plant); for pest or weed control at 62.5 g/ha / pest or weed control at 250 g/ha: evaluated after 13 days; for pest or weed control at 250 g/ha: 250 g ai/ha, read-out: damage to plant, Pigweed, Redroot (100=total damage to plant; 0=no damage to plant)
Summary of the method: as §1

[4] = test system: ivy-leaved morning glory (Ipomoea hederacea); test: Test G Post-Emergence Protocol; details: Ipomoea, post-emergence, 312 h; for pest or weed control at 15.625 g/ha: 15.625 g ai/ha, evaluated after 13 days (100=total damage to plant; 0=no damage to plant), read-out: Morningglory, Ivy-leaved damage rating; for pest or weed control at 62.5 g/ha: 62.5 g ai/ha, read-out: Morningglory, Ivy-leaved damage rating (100=total damage to plant; 0=no damage to plant); for pest or weed control at 62.5 g/ha / pest or weed control at 250 g/ha: evaluated after 13 days; for pest or weed control at 250 g/ha: 250 g ai/ha, read-out: damage to plant, Morningglory, Ivy-leaved (100=total damage to plant; 0=no damage to plant)
Summary of the method: as §1

[5] = test system: barnyardgrass (Echinochloa crus-galli); test: Test G Post-Emergence Protocol; details: Echinochloa crus-galli, post-emergence, 312 h; for pest or weed control at 15.625 g/ha: 15.625 g ai/ha, evaluated after 13 days (100=total damage to plant; 0=no damage to plant), read-out: Barnyardgrass damage rating; for pest or weed control at 62.5 g/ha: 62.5 g ai/ha, read-out: Barnyardgrass damage rating (100=total damage to plant; 0=no damage to plant); for pest or weed control at 62.5 g/ha / pest or weed control at 250 g/ha: evaluated after 13 days; for pest or weed control at 250 g/ha: 250 g ai/ha, read-out: damage to plant, Barnyardgrass (100=total damage to plant; 0=no damage to plant)
Summary of the method: as §1

corn (Zea mays) [6] = test: Test G Post-Emergence Protocol; details: Zea mays, post-emergence, 312 h; for plant injury at 15.625 g/ha: 15.625 g ai/ha, evaluated after 13 days (100=total damage to plant; 0=no damage to plant), read-out: Corn damage rating; for plant injury at 62.5 g/ha: 62.5 g ai/ha, read-out: Corn damage rating (100=total damage to plant; 0=no damage to plant); for plant injury at 62.5 g/ha / plant injury at 250 g/ha: evaluated after 13 days; for plant injury at 250 g/ha: 250 g ai/ha, read-out: damage to plant, Corn (100=total damage to plant; 0=no damage to plant)
Summary of the method: as §1

[7] = test system: giant foxtail (Setaria faberi); test: Test G Pre-Emergence Protocol; details: Setaria faberi, pre-emergence, 312 h, evaluated after 13 days; for pest or weed control at 15.625 g/ha: 15.625 g ai/ha; for pest or weed control at 15.625 g/ha / pest or weed control at 250 g/ha: read-out: Foxtail, Giant damage rating (100=total damage to plant; 0=no damage to plant); for pest or weed control at 62.5 g/ha: 62.5 g ai/ha, 100=total damage to plant, 0=no damage to plant, read-out: plant damage rating, Foxtail, Giant; for pest or weed control at 250 g/ha: 250 g ai/ha
Summary of the method: (§2)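 Test compound in 0.5% Tween 20 acetone/water (50:50) was applied at three rates (15.625, 62.5, 250 g/ha) to soil sown one day earlier. After 13 days plants were scored for injury, where 0 means unaffected and 100 means completely damaged.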

[8] = test system: velvetleaf (Abutilon theophrasti); test: Test G Pre-Emergence Protocol; details: Abutilon theophrasti, pre-emergence, 312 h, evaluated after 13 days; for pest or weed control at 15.625 g/ha: 15.625 g ai/ha; for pest or weed control at 15.625 g/ha / pest or weed control at 250 g/ha: read-out: Velvetleaf damage rating (100=total damage to plant; 0=no damage to plant); for pest or weed control at 62.5 g/ha: 62.5 g ai/ha, 100=total damage to plant, 0=no damage to plant, read-out: plant damage rating, Velvetleaf; for pest or weed control at 250 g/ha: 250 g ai/ha
Summary of the method: as §2

[9] = test system: redroot pigweed (Amaranthus retroflexus); test: Test G Pre-Emergence Protocol; details: Amaranthus retroflexus, pre-emergence, 312 h, evaluated after 13 days; for pest or weed control at 15.625 g/ha: 15.625 g ai/ha; for pest or weed control at 15.625 g/ha / pest or weed control at 250 g/ha: read-out: Pigweed, Redroot damage rating (100=total damage to plant; 0=no damage to plant); for pest or weed control at 62.5 g/ha: 62.5 g ai/ha, 100=total damage to plant, 0=no damage to plant, read-out: plant damage rating, Pigweed, Redroot; for pest or weed control at 250 g/ha: 250 g ai/ha
Summary of the method: as §2

[10] = test system: ivy-leaved morning glory (Ipomoea hederacea); test: Test G Pre-Emergence Protocol; details: Ipomoea, pre-emergence, 312 h, evaluated after 13 days; for pest or weed control at 15.625 g/ha: 15.625 g ai/ha, read-out: Morning-glory, Ivy-leaved damage rating (100=total damage to plant; 0=no damage to plant); for pest or weed control at 62.5 g/ha: 62.5 g ai/ha, 100=total damage to plant, 0=no damage to plant, read-out: plant damage rating, Morningglory, Ivy-leaved; for pest or weed control at 250 g/ha: 250 g ai/ha, read-out: Morningglory, Ivy-leaved damage rating (100=total damage to plant; 0=no damage to plant)
Summary of the method: as §2

[11] = test system: barnyardgrass (Echinochloa crus-galli); test: Test G Pre-Emergence Protocol; details: Echinochloa crus-galli, pre-emergence, 312 h, evaluated after 13 days; for pest or weed control at 15.625 g/ha: 15.625 g ai/ha, read-out: Barnyard grass damage rating (100=total damage to plant; 0=no damage to plant); for pest or weed control at 62.5 g/ha: 62.5 g ai/ha, 100=total damage to plant, 0=no damage to plant, read-out: plant damage rating, Barnyardgrass; for pest or weed control at 250 g/ha: 250 g ai/ha, read-out: Barnyardgrass damage rating (100=total damage to plant; 0=no damage to plant)
Summary of the method: as §2

corn (Zea mays) [12] = test: Test G Pre-Emergence Protocol; details: Zea mays, pre-emergence, 312 h, evaluated after 13 days; for plant injury at 15.625 g/ha: 15.625 g ai/ha; for plant injury at 15.625 g/ha / plant injury at 250 g/ha: read-out: Corn damage rating (100=total damage to plant; 0=no damage to plant); for plant injury at 62.5 g/ha: 62.5 g ai/ha, 100=total damage to plant, 0=no damage to plant, read-out: plant damage rating, Corn; for plant injury at 250 g/ha: 250 g ai/ha
Summary of the method: as §2

Row | SMILES | pest or weed control at 15.625 g/ha [1] | pest or weed control at 62.5 g/ha [1] | pest or weed control at 250 g/ha [1] | pest or weed control at 15.625 g/ha [2] | pest or weed control at 62.5 g/ha [2] | pest or weed control at 250 g/ha [2] | pest or weed control at 15.625 g/ha [3] | pest or weed control at 62.5 g/ha [3] | pest or weed control at 250 g/ha [3] | pest or weed control at 15.625 g/ha [4] | pest or weed control at 62.5 g/ha [4] | pest or weed control at 250 g/ha [4] | pest or weed control at 15.625 g/ha [5] | pest or weed control at 62.5 g/ha [5] | pest or weed control at 250 g/ha [5] | plant injury at 15.625 g/ha (corn (Zea mays) [6]) | plant injury at 62.5 g/ha (corn (Zea mays) [6]) | plant injury at 250 g/ha (corn (Zea mays) [6]) | pest or weed control at 15.625 g/ha [7] | pest or weed control at 62.5 g/ha [7] | also measured
1 | CN1C[C@@H](c2ccc(C(F)(F)F)cc2)[C@H](C(=O)Nc2cnn(C)n2)C1=O (racemic) [Compound 1531] | 0% | 0% | 0% | 0% | 0% | 0% | 0% | 0% | 0% | 0% | 0% | 0% | 0% | 0% | 0% | 0% | 0% | 10% | 0% | 0% | pest or weed control at 250 g/ha [7]: 0%; pest or weed control at 15.625 g/ha [8]: 0%; pest or weed control at 62.5 g/ha [8]: 0%; pest or weed control at 250 g/ha [8]: 0%; pest or weed control at 15.625 g/ha [9]: 0%; pest or weed control at 62.5 g/ha [9]: 0%; pest or weed control at 250 g/ha [9]: 0%; pest or weed control at 15.625 g/ha [10]: 0%; pest or weed control at 62.5 g/ha [10]: 0%; pest or weed control at 250 g/ha [10]: 0%; pest or weed control at 15.625 g/ha [11]: 0%; pest or weed control at 62.5 g/ha [11]: 0%; pest or weed control at 250 g/ha [11]: 0%; plant injury at 15.625 g/ha (corn (Zea mays) [12]): 0%; plant injury at 62.5 g/ha (corn (Zea mays) [12]): 0%; plant injury at 250 g/ha (corn (Zea mays) [12]): 0%
2 | CN1C[C@@H](c2ccc(C(F)(F)F)cc2)[C@H](C(=O)Nc2c[nH]nc2C(F)(F)F)C1=O (racemic) [Compound 1535] | 0% | 0% | 0% | 0% | 0% | 0% | 0% | 10% | 30% | 0% | 0% | 0% | 0% | 0% | 0% | 0% | 0% | 10% | 0% | 0% | pest or weed control at 250 g/ha [7]: 0%; pest or weed control at 15.625 g/ha [8]: 0%; pest or weed control at 62.5 g/ha [8]: 0%; pest or weed control at 250 g/ha [8]: 0%; pest or weed control at 15.625 g/ha [9]: 0%; pest or weed control at 62.5 g/ha [9]: 20%; pest or weed control at 250 g/ha [9]: 40%; pest or weed control at 15.625 g/ha [10]: 0%; pest or weed control at 62.5 g/ha [10]: 0%; pest or weed control at 250 g/ha [10]: 0%; pest or weed control at 15.625 g/ha [11]: 0%; pest or weed control at 62.5 g/ha [11]: 0%; pest or weed control at 250 g/ha [11]: 0%; plant injury at 15.625 g/ha (corn (Zea mays) [12]): 0%; plant injury at 62.5 g/ha (corn (Zea mays) [12]): 0%; plant injury at 250 g/ha (corn (Zea mays) [12]): 0%

From patent publication US12077503B2, “Substituted cyclic amides and their use as herbicides” (FMC CORPORATION, priority 2015, dated 2024)
